Activity calls are given as the source filed them. The rule behind the calls is not given here.
System: CCRIS mutagenicity, Ames/micronucleus/aberration tests
Test: CCRIS mutagenicity studies
[1] = Test System: AMES SALMONELLA TYPHIMURIUM, Strain/Indicator: TA98, Metabolic Activation: RAT, LIVER, S-9, KANECHLOR 500, Method: PREINCUBATION
[2] = Test System: AMES SALMONELLA TYPHIMURIUM, Strain/Indicator: TA100(NR), Metabolic Activation: NONE, Method: PREINCUBATION
[3] = Test System: AMES SALMONELLA TYPHIMURIUM, Strain/Indicator: TA100, Metabolic Activation: RAT, LIVER, S-9, KANECHLOR 500, Method: PREINCUBATION

Measured: mutagenic call

CC(C)[N+](=O)[O-]
active: Test System: AMES SALMONELLA TYPHIMURIUM, Strain/Indicator: TA98(NR), Metabolic Activation: NONE, Method: PREINCUBATION active; positive | Test System: AMES SALMONELLA TYPHIMURIUM, Strain/Indicator: TA98(NR), Metabolic Activation: RAT, LIVER, S-9, CLOPHEN A-50, Method: PREINCUBATION active; positive | Test System: AMES SALMONELLA TYPHIMURIUM, Strain/Indicator: TA98, Metabolic Activation: RAT, LIVER, S-9, AROCLOR 1254, Method: PREINCUBATION active; positive | Test System: AMES SALMONELLA TYPHIMURIUM, Strain/Indicator: TA98, Metabolic Activation: RAT, LIVER, S-9, CLOPHEN A-50, Method: PREINCUBATION active; positive | [1] active; positive | [2] active; positive | Test System: AMES SALMONELLA TYPHIMURIUM, Strain/Indicator: TA100(NR), Metabolic Activation: RAT, LIVER, S-9, CLOPHEN A-50, Method: PREINCUBATION active; positive | Test System: AMES SALMONELLA TYPHIMURIUM, Strain/Indicator: TA100, Metabolic Activation: RAT, LIVER, S-9, AROCLOR 1254, Method: PREINCUBATION active; positive | Test System: AMES SALMONELLA TYPHIMURIUM, Strain/Indicator: TA100, Metabolic Activation: RAT, LIVER, S-9, AROCLOR, Method: PREINCUBATION active; positive | Test System: AMES SALMONELLA TYPHIMURIUM, Strain/Indicator: TA100, Metabolic Activation: RAT, LIVER, S-9, CLOPHEN A-50, Method: PREINCUBATION active; positive | [3] active; positive | Test System: AMES SALMONELLA TYPHIMURIUM, Strain/Indicator: TA102, Metabolic Activation: NONE, Method: PREINCUBATION active; positive | Test System: AMES SALMONELLA TYPHIMURIUM, Strain/Indicator: TA102, Metabolic Activation: RAT, LIVER, S-9, AROCLOR 1254, Method: PREINCUBATION active; positive | Test System: AMES SALMONELLA TYPHIMURIUM, Strain/Indicator: TA102, Metabolic Activation: RAT, LIVER, S-9, AROCLOR, Method: PREINCUBATION active; positive | Test System: CHINESE HAMSTER V-79, Strain/Indicator: V-79/6-THIOGUANINE, Metabolic Activation: NONE, Method: STANDARD PLATE active; positive | Test System: E. COLI, Strain/Indicator: WP2 UVRA (PKM101), Metabolic Activation: NONE, Method: PREINCUBATION active; positive | Test System: E. COLI, Strain/Indicator: WP2 UVRA (PKM101), Metabolic Activation: RAT, LIVER, S-9, KANECHLOR 1254, Method: PREINCUBATION active; positive | Test System: UDS HUMAN HEPATOCYTES, Strain/Indicator: THY INCORP, Metabolic Activation: NONE, Method: AUTORADIOGRAPHY active; positive | Test System: UDS HUMAN HEPATOCYTES, Strain/Indicator: THY-INCORP, Metabolic Activation: NONE, Method: AUTORADIOGRAPHY active; positive | Test System: UDS MOUSE HEPATOCYTES, Strain/Indicator: THY INCORP, Metabolic Activation: NONE, Method: AUTORADIOGRAPHY active; positive | Test System: UDS RAT HEPATOCYTES, Strain/Indicator: THY INCORP, Metabolic Activation: NONE active; positive | Test System: UDS RAT HEPATOCYTES, Strain/Indicator: THY INCORP, Metabolic Activation: NONE, Method: AUTORADIOGRAPHY active; positive | Test System: UDS RAT HEPATOCYTES, Strain/Indicator: THY-INCORP, Metabolic Activation: NONE, Method: AUTORADIOGRAPHY active; positive | Test System: UDS RODENT HEPATOCYTES, Strain/Indicator: THY INCORP (NON-S-PHASE), Metabolic Activation: IN VIVO, Method: AUTORADIOGRAPHY active; positive | Test System: UDS RODENT HEPATOCYTES, Strain/Indicator: THY INCORP (NON-S-PHASE), Metabolic Activation: NONE, Method: LIQUID SCINTILLATION COUNTING active; positive
inactive: End Point: IN VITRO CHROMOSOMAL ABERRATIONS, Test System: CHINESE HAMSTER OVARY CELLS, Metabolic Activation: NONE inactive; negative | End Point: IN VITRO CHROMOSOMAL ABERRATIONS, Test System: CHINESE HAMSTER OVARY CELLS, Metabolic Activation: RAT, LIVER, S-9, AROCLOR 1254 inactive; negative | End Point: In vitro chromosomal aberrations, Test System: Chinese hamster lung (CHL/IU) cells, Metabolic Activation: None inactive; negative | End Point: In vitro chromosomal aberrations, Test System: Chinese hamster lung (CHL/IU) cells, Metabolic Activation: Rat, Liver, S9, Phenobarbital and 5,6-benzoflavone inactive; negative | Test System: CHINESE HAMSTER V-79, Strain/Indicator: V-79/6-THIOGUANINE, Metabolic Activation: RAT, HEPATOCYTES inactive; negative | Test System: CHINESE HAMSTER V-79, Strain/Indicator: V-79/OUABAIN, Metabolic Activation: NONE inactive; negative | Test System: CHINESE HAMSTER V-79, Strain/Indicator: V-79/OUABAIN, Metabolic Activation: RAT, HEPATOCYTES inactive; negative | Test System: UDS RODENT HEPATOCYTES, Strain/Indicator: THY INCORP (NON-S-PHASE), Metabolic Activation: NONE, Method: PREINCUBATION inactive; negative

O=[N+]([O-])c1ccccc1SS/C(Cl)=C(\Cl)C(F)(F)F
active: Test System: AMES SALMONELLA TYPHIMURIUM, Strain/Indicator: TA100(DNP6), Metabolic Activation: NONE, Method: PREINCUBATION active; positive | [2] active; positive

Cc1ccc(C)c([N+](=O)[O-])c1
inactive: Test System: AMES SALMONELLA TYPHIMURIUM, Strain/Indicator: TA98, Metabolic Activation: NONE, Method: PREINCUBATION inactive; negative | [1] inactive; negative | Test System: AMES SALMONELLA TYPHIMURIUM, Strain/Indicator: TA100, Metabolic Activation: NONE, Method: PREINCUBATION inactive; negative
active: [3] active; positive

Reference: PubChem BioAssay AID1259407 (Chemical Carcinogenesis Research Information System (CCRIS), 2018)
